Laboratory results taken from US8710097B2, “Flavonoid dimers and methods of making and using such” (The Hong Kong Polytechnic University, priority 2006, dated 2014).
In brackets after ≈: the same amount, converted by molar mass. Read-outs that look alike come from different tables or passages of the source.

How the values were obtained:
leukemic K562/R7 cells = details: literature; cited from earlier work
Ltrmdr1 = details: literature; cited from earlier work
MDA435/LCC6 MDR cells [1] = test: cells; details: MDA435/LCC6 MDR
P388/ADR cells [2] = test: Doxorubicin accumulation; type: cell-based, murine; details: monomer 10b at double concentration of the dimers, FIG. 11A
Procedure: (§1) For P388 (both parent and MDR subtype) cells, 1 ml (10^5 cells) confluent cells were aliquot into Eppendorf tube and pre-incubated with flavone dimers for 30 min at 37° C. Doxorubicin (final concentration of 10 μM) was then added and incubated for 2 h at 37° C. at a final concentration of 10 μM. The cell pellets were washed 3 times with cold PBS by using an Eppendorf micro-centrifuge and lysed with 0.3N HCL in 50% ethanol, and sonicated for 30s. After centrifugation at 10000 rpm/min for 3 min, the supernatant was saved. The fluorescence of doxorubicin was measured using a spectrofluorometer (λexcite=470 nm, λemit=585 nm).

[3] = tested on: SSG-resistant L. donovani Ld39 promastigotes; test: microbe, parasite or virus in culture; type: cell-based, Leishmania donovani
Procedure: (§2) Cell lines and Cell Culture. Promastigotes of Leishmania enriettii (LePentR50, Le wild type, LeMDR1 −/− and LeMDR1-overexpressed LeV160 mutants) and Leishmania donovani (LdAG83, Ld2001 and Ld39) were employed in this study. The former is a natural infective strain of guinea pig and the latter is a clinical strain, which may cause visceral leishmaniasis in human. Both strains were cultured in Schneider's Drosophila Medium (Invitrogen), pH 6.9 supplemented with 10% (v/v) heat inactivated fetal calf serum (Hyclone) with 4 mM glutamine (Sigma) and 25 μg/mL gentamicin solution (Invitrogen), at 27° C. for 4 days (Cloning and functional analysis of an extrachromosomally amplified multidrug resistance-like gene in Leishmania enriettii. Mol. Biochem. Parasitol 1993, 60, 195-208). […]
(§3) The viability of promastigotes was determined by the Cell Titer 96® Aqueous Assay (Promega) that employs a tetrazolium compound (MTS) and electron coupling reagent, phenazine methosulfate (PMS). Promastigotes were seeded into 96-well flat bottom microtiter plate at 1×10^5 cells per well in a final volume of 100 μL medium. To determine the cytotoxic effects of flavonoid dimers to the parasites, various concentrations of flavonoid dimers were added to the promastigotes. To determine the reversal effects of flavonoid dimers with different spacer lengths, various concentrations of antileishmanial drugs, one of pentamidine or SSG, vinblastine and puromycin was added to the wells with or without flavonoid dimers. The parasites were incubated at 27° C. for 72 hrs. Each concentration of antileishmanials with or without the flavonoid dimers was tested in triplicates in each experiment. A 2 mg/mL MTS and 0.92 mg/mL PMS were mixed at a ratio of 20:1 (MTS: PMS). After 72-hr incubation, 10 μL of MTS:PMS mixture was added into each well of microtiter plate. The plate was then incubated at 27° C. for 4 hrs for color development. After 4 hrs of incubation, the OD values were determined at 490 nm using automatic microtiter plate reader (Bio-Rad).

[4] = tested on: pentamidine-resistant L. enriettii LePentR50 promastigotes; test: microbe, parasite or virus in culture; details: for IC50: Leishmania enriettii
Procedure: (§4) Cell lines and Cell Culture. Promastigotes of Leishmania enriettii (LePentR50, Le wild type, LeMDR1 −/− and LeMDR1-overexpressed LeV160 mutants) and Leishmania donovani (LdAG83, Ld2001 and Ld39) were employed in this study. The former is a natural infective strain of guinea pig and the latter is a clinical strain, which may cause visceral leishmaniasis in human. Both strains were cultured in Schneider's Drosophila Medium (Invitrogen), pH 6.9 supplemented with 10% (v/v) heat inactivated fetal calf serum (Hyclone) with 4 mM glutamine (Sigma) and 25 μg/mL gentamicin solution (Invitrogen), at 27° C. for 4 days (Cloning and functional analysis of an extrachromosomally amplified multidrug resistance-like gene in Leishmania enriettii. Mol. Biochem. Parasitol 1993, 60, 195-208).
(§5) Promastigotes of LeV160 were culture in the presence of 160 μg/mL vinblastine. No pentamidine and vinblastine (Sigma) was added to the Le wild type and LeMDR1 −/− mutant.
as §3

[5] = tested on: tested MDR cell lines (drug resistant breast cancer and leukemia cells); type: cell-based; details: tested MDR cell lines; 10 μM
Source text: Cell proliferation assay.

P388/ADR cells [6] = test: cells
Procedure: MDA435/LCC6 and P388 (both parent and MDR subtype) were maintained in DMEM and RPMI 1640 culture medium supplemented with 10% FBS, respectively. RPMI 1640 media also contained 100 units/ml penicillin and 100 μg/ml streptomycin. Cells were cultured at 37° C. in a humidified atmosphere with 5% CO2. A solution of 0.05% trypsin-EDTA was used to detach the MDA435/LCC6 (both wild type and MDR subtype) cells.
Cell proliferation assay. MDA435/LCC6 and P388 (both parent and MDR subtype) cells were seeded at 2000 and 5000 cells per well, respectively, in 96-well plates. Varying concentrations of anticancer drugs (Doxorubicin, Daunorubicin, Vincristine, Vinblastine, taxol, Mitoxantrone) with or without the flavonoid dimers were added in a final volume of 200 μl and cells were grown for 4 and 3 days for MDA435/LCC6 and P388 (both parent and MDR subtype) cells, respectively. For MDA435/LCC6 (both parent and MDR subtype), the corresponding drugs were added after cell attachment (24 hr incubation). To measure cell proliferation, the cell Titer 960 Aqueous Assay (Promega) was used according to the manufacturer's instructions. Briefly, MTS (2 mg/ml) and PMS (0.92 mg/ml) were mixed in a ratio of 20:1. 30 μl MTS/PMS mixture was added into each well and incubated for 2 hours at 37° C. Optical absorbance at 490 nm was then recorded using an ELISA microtiter plate reader (Bio-Rad). Each experiment was done at least in triplicate and repeated twice. Cytotoxicity of the anticancer drugs was expressed as the fraction of the cells survived relative to the untreated DMSO (0.05%) solvent controls.

[7] = tested on: wild type L. donovani LdAG83 promastigotes; test: Leishmania cell viability (MTS) assay; type: cell-based, Leishmania donovani; details: Leishmania donovani, 72 h, read-out: IC50(μM) of synthetic flavonoid, LdAG83
Procedure: as §2, §3

MDA435/LCC6 cells = test: Doxorubicin accumulation; type: cell-based, human; details: LCC6, basal P-gp; dimers 10 μM, monomer 20 μM
Procedure: Doxorubicin accumulation. […] At confluence, culture medium was removed. 2 ml of fresh DMEM with modulators was added and cells were incubated for 30 min at 37° C. Doxorubicin (final concentration of 20 μM) was then added and incubated for 2 h at 37° C. The cells were then harvested by trypsinization.

P388 cells = test: Doxorubicin accumulation; type: cell-based, murine
Procedure: as §1

MDA435/LCC6 MDR cells [8] = test: Doxorubicin accumulation; type: cell-based, human; details: LCC6 MDR; apigenin dimers 10 μM; 20 μM doxorubicin, 2 h
Procedure: Doxorubicin accumulation. 2.5 ml (10^5 cells/ml) MDA435/LCC6 (both parent and MDR subtype) cells were seeded in each well of 6-well plates. At confluence, culture medium was removed. 2 ml of fresh DMEM with modulators was added and cells were incubated for 30 min at 37° C. Doxorubicin (final concentration of 20 μM) was then added and incubated for 2 h at 37° C. The cells were then harvested by trypsinization.
as §1
In order to understand whether the modulating activity for various anticancer drugs by different dimers is due to their different ability to modulate P-gp mediated drug efflux, their effects on the accumulation of doxorubicin in both MDA435/LCC6 sensitive and resistant cells were investigated. Doxorubicin was a fluorescent drug substrate of P-gp and was used in this experiment to monitor the P-gp mediated drug efflux. Accumulation of doxorubicin in these cells was determined in the presence or absence of apigenin dimers (10 μM) and monomer (20 μM). Verapamil was used as a positive control.

[9] = molecular target: NBD2 cytosolic domain of mouse P-gp (Mus musculus, UniProt P06795); details: reported in literature; cited from earlier work
Chain of NBD2 cytosolic domain of mouse P-gp (P06795 1033-1271 limits assumed): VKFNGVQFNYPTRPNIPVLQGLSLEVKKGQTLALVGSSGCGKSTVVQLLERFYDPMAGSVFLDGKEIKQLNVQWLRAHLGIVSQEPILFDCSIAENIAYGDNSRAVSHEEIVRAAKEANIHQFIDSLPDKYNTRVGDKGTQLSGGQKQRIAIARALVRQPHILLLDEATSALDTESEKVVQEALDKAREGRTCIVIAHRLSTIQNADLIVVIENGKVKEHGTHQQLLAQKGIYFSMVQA

[10] = tested on: wild type L. enriettii (Le); test: Leishmania cell viability (MTS) assay; type: cell-based, Leishmania enriettii
Procedure: as §4, §5
as §3, with “After 72-hr incubation, 10 μL of MTS:PMS mixture was added into each well of microtiter plate. The plate was then incubated at 27° C. for 4 hrs for color development.” left out

[11] = tested on: LeMDR1 overexpressed L. enriettii (LeV160); test: Leishmania cell viability (MTS) assay; type: cell-based, Leishmania enriettii; details: Leishmania enriettii, read-out: IC50 of pentamidine (μg/ml), no modulator
Source text: (§6) Cell lines and Cell Culture.

[12] = tested on: LeMDR1 knockout (LeMDR1 −/−) L. enriettii; test: Leishmania cell viability (MTS) assay; type: cell-based, Leishmania enriettii; details: Leishmania enriettii, read-out: IC50 of pentamidine (μg/ml), no modulator
Source text: as §6

CC(C)=CCc1c(O)cc2oc(-c3ccccc3)cc(=O)c2c1O [6-Prenylchrysin]
inhibition of P-gp mediated drug efflux (leukemic K562/R7 cells): inhibited P-gp mediated drug efflux

CC(C)=CCc1c(O)cc(O)c2c(=O)cc(-c3ccccc3)oc12 [8-Prenylchrysin]
inhibition of P-gp mediated drug efflux (leukemic K562/R7 cells): inhibited P-gp mediated drug efflux

COc1ccc(-c2oc3c(CC=C(C)C)c(O)cc(O)c3c(=O)c2O)cc1 [8-dimethylallylkaempferide]
modulation (inhibition of Ltrmdr1) compared with cyclosporine A or verapamil (Ltrmdr1): better modulator than either cyclosporine A or verapamil

O=c1cc(-c2ccc(OCCOCCOCCOCCO)cc2)oc2cc(O)cc(O)c12 [Compound 10b, 12-[4′-((5,7-dihydroxy)-4H-chromen-4-on-2-yl)phenyl]-3,6,9,12-tetraoxadodecan-1-ol]
doxorubicin resistance reversal (MDA435/LCC6 MDR cells [1]; monomers): ineffective reversers
reversing effect on taxol resistance (MDA435/LCC6 MDR cells [1]; monomers at 10 μM): little reversing effect
activity on doxorubicin accumulation (P388/ADR cells [2]): little or no activity at all
SSG resistance modulating activity ([3]; Ld39, 12 μM, FIG. 14B): did not give any significant modulating activity
IC50 ([3]; Leishmania donovani, 72 h, read-out: IC50(μM) of synthetic flavonoid, Ld39): > 200 µM
IC50 ([4]; 72 h, read-out: IC50(μM) of synthetic flavonoid, LePentR50, cytotoxicity of compound alone, 72 hrs): > 200 µM
anticancer activity of monomers alone [5]: no anticancer activity
modulatory activity on doxorubicin and daunorubicin cytotoxicity (P388/ADR cells [6]): little modulatory activity
IC50 [7]: > 200 µM

COc1ccc(CCN(C)CCCC(C#N)(c2ccc(OC)c(OC)c2)C(C)C)cc1OC (stereo not shown) [Verapamil, reference compound]
accumulation of doxorubicin in LCC6 (MDA435/LCC6 cells): unaffected
doxorubicin accumulation in parent sensitive cells (P388 cells): almost unaffected
enhancement of doxorubicin accumulation, folds of control (MDA435/LCC6 MDR cells [8]): 6.2 folds
pentamidine sensitization ([4]; LePentR50, FIG. 18A): less than half-fold sensitization

O=c1c(O)c(-c2ccc(O)cc2)oc2cc(O)cc(O)c12 [kaempferol]
binding to NBD2 cytosolic domain of mouse P-gp [9]: bind directly

N=C(N)c1ccc(OCCCCCOc2ccc(C(=N)N)cc2)cc1 [pentamidine, reference compound]
IC50 of pentamidine (μg/ml), no modulator ([10]; Le wild type): 12.0 ± 0.8 µg/mL
IC50 ([10]; Leishmania enriettii, read-out: IC50 of pentamidine (μg/ml), no modulator, Le wild type): ~8.7 µg/mL (≈ 25.6 µM)
survival of LePentR50 ([4]; 60 μg/ml pentamidine alone): 94.0±2.3 % of untreated
IC50 ([4]; read-out: IC50 of pentamidine alone, LePentR50, no modulator (DMSO)): 117 µg/mL
IC50 [11]: 9 ± 0.1 µg/mL (≈ 26.4 µM)
IC50 [12]: 18.9 ± 0.8 µg/mL (≈ 55.5 µM)

O=c1c(O)c(-c2ccc(O)c(O)c2)oc2cc(O)cc(O)c12 [quecetin]
binding to NBD2 cytosolic domain of mouse P-gp [9]: bind directly

dehydrosilybin
binding to NBD2 cytosolic domain of mouse P-gp [9]: bind directly
